Measurements reported in PubChem BioAssay AID248 (DTP/NCI, 2004).
Where “and” joins values, the source holds several entries; their conditions need not be identical. Identical values can stand only once. Toxic doses and inconclusive results are not listed. No stated cut-off is given here; in the data, active means T/C of 150% or more; inactive means T/C below 125%.

Test system: L1210 leukemia ip in BDF1 mice, survival T/C
Assay: NCI In Vivo Anticancer Drug Screen. Data for tumor model L1210 Leukemia (intraperitoneal) in B6D2F1 (BDF1) mice
Details: endpoint: mean survival time, higher = longer survival
Method in brief: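 Each compound was tested against a transplantable tumor grown in mice. The endpoint was survival, with treated animals benchmarked against vehicle controls as a simple ratio.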

[1] = dose: 75.0 mg/kg/injection, schedule: Q01DX001 (ip), vehicle: saline
[2] = dose: 150.0 mg/kg/injection, schedule: Q01DX001 (ip), vehicle: saline
[3] = dose: 300.0 mg/kg/injection, schedule: Q01DX001 (ip), vehicle: saline
[4] = dose: 100.0 mg/kg/injection, schedule: Q01DX001 (ip), vehicle: carboxymethylcellulose (CMC)
[5] = dose: 200.0 mg/kg/injection, schedule: Q01DX001 (ip), vehicle: carboxymethylcellulose (CMC)
[6] = dose: 400.0 mg/kg/injection, schedule: Q01DX001 (ip), vehicle: carboxymethylcellulose (CMC)
[7] = dose: 100.0 mg/kg/injection, schedule: Q01DX009 (ip), vehicle: Klucel (hydroxypropylcellulose) (HPC)
[8] = dose: 200.0 mg/kg/injection, schedule: Q01DX009 (ip), vehicle: Klucel (hydroxypropylcellulose) (HPC)
[9] = dose: 400.0 mg/kg/injection, schedule: Q01DX009 (ip), vehicle: Klucel (hydroxypropylcellulose) (HPC)
[10] = dose: 100.0 mg/kg/injection, schedule: Q04DX003 (ip), vehicle: saline with Tween-80
[11] = dose: 200.0 mg/kg/injection, schedule: Q04DX003 (ip), vehicle: saline with Tween-80
[12] = dose: 100.0 mg/kg/injection, schedule: Q04DX003 (ip), vehicle: Klucel (hydroxypropylcellulose) (HPC)
[13] = dose: 200.0 mg/kg/injection, schedule: Q04DX003 (ip), vehicle: Klucel (hydroxypropylcellulose) (HPC)
[14] = dose: 400.0 mg/kg/injection, schedule: Q04DX003 (ip), vehicle: Klucel (hydroxypropylcellulose) (HPC)
[15] = dose: 50.0 mg/kg/injection, schedule: Q01DX009 (ip), vehicle: saline with Tween-80
[16] = dose: 100.0 mg/kg/injection, schedule: Q01DX009 (ip), vehicle: saline with Tween-80
[17] = dose: 100.0 mg/kg/injection, schedule: Q01DX009 (ip), vehicle: saline
[18] = dose: 200.0 mg/kg/injection, schedule: Q01DX009 (ip), vehicle: saline
[19] = dose: 400.0 mg/kg/injection, schedule: Q01DX009 (ip), vehicle: saline
[20] = dose: 100.0 mg/kg/injection, schedule: Q04DX002 (ip), vehicle: Klucel (hydroxypropylcellulose) (HPC)
[21] = dose: 200.0 mg/kg/injection, schedule: Q04DX002 (ip), vehicle: Klucel (hydroxypropylcellulose) (HPC)
[22] = dose: 400.0 mg/kg/injection, schedule: Q04DX002 (ip), vehicle: Klucel (hydroxypropylcellulose) (HPC)
[23] = dose: 100.0 mg/kg/injection, schedule: Q04DX002 (ip), vehicle: saline
[24] = dose: 200.0 mg/kg/injection, schedule: Q04DX002 (ip), vehicle: saline
[25] = dose: 100.0 mg/kg/injection, schedule: Q04DX003 (ip), vehicle: saline
[26] = dose: 200.0 mg/kg/injection, schedule: Q04DX003 (ip), vehicle: saline
[27] = dose: 400.0 mg/kg/injection, schedule: Q04DX003 (ip), vehicle: saline

Measured: T/C

CC1(C)C2CC=C(CCOC(=O)COc3cc(Cl)c(Cl)cc3Cl)C1C2 (configuration not stated)
inactive: dose: 160.0 mg/kg/injection, schedule: Q01DX Z (ip), vehicle: other 105 % of control | dose: 240.0 mg/kg/injection, schedule: Q01DX Z (ip), vehicle: other 109 % of control | dose: 350.0 mg/kg/injection, schedule: Q01DX Z (ip), vehicle: other 88 % of control

CC(=O)c1ccccc1O.CO.CO.[Cl][Nb][Cl]
inactive: [1] 93 % of control | [2] 90 % of control | [3] 90 % of control

Cc1cccc(NC(=O)NCCO)c1
inactive: [4] 103 % of control | [5] 109 % of control | [6] 97 % of control

CCCCOC(=O)c1ccc(NC(=O)Nc2cc(Cl)ccc2OC)cc1
inactive: [7] 98 % of control | [8] 98 % of control | [9] 90 % of control

CNC/C(C)=C/Br
inactive: dose: 100.0 mg/kg/injection, schedule: Q04DX003 (ip), vehicle: acetone 101 % of control | [10] 103 % of control | dose: 200.0 mg/kg/injection, schedule: Q04DX003 (ip), vehicle: acetone 92 % of control | [11] 97 % of control

OCCN(Cc1ccccc1)Cc1ccccc1
inactive: [10] 101 % of control | [11] 95 % of control

COc1cc(C(=O)Nc2ccc(NC3=NCCN3)cc2)cc(C(=O)Nc2ccc(NC3=NCCN3)cc2)c1
inactive: dose: 1.9 mg/kg/injection, schedule: Q01DX Z (ip), vehicle: methylcellulose (MC) 104 % of control | dose: 3.8 mg/kg/injection, schedule: Q01DX Z (ip), vehicle: methylcellulose (MC) 99 % of control | dose: 7.5 mg/kg/injection, schedule: Q01DX Z (ip), vehicle: methylcellulose (MC) 113 % of control | dose: 15.0 mg/kg/injection, schedule: Q01DX Z (ip), vehicle: methylcellulose (MC) 118 % of control

O=C1c2ccccc2C(=O)c2c(Cl)ccc(O)c21
inactive: [7] 98 % of control | [12] 97 % of control | [8] 105 % of control | [13] 97 % of control | [9] 101 % of control | [14] 96 % of control

O=C/C=C/c1cc(Cl)ccc1O
inactive: dose: 100.0 mg/kg/injection, schedule: Q01DX001 (ip), vehicle: saline 108 % of control | dose: 200.0 mg/kg/injection, schedule: Q01DX001 (ip), vehicle: saline 103 % of control

OCC1OC(n2cc(Br)c3c2ncn2ccnc32)C(O)C1O (configuration not stated)
inactive: dose: 50.0 mg/kg/injection, schedule: Q01DX005 (ip), vehicle: saline 98 % of control | dose: 100.0 mg/kg/injection, schedule: Q01DX005 (ip), vehicle: saline 104 % of control | dose: 200.0 mg/kg/injection, schedule: Q01DX005 (ip), vehicle: saline 104 % of control

COc1ccc(OC)c(/C=C/c2cccn[n+]2C)c1
inactive: [15] 101 % of control | [16] 114 % of control

CC(=O)/C(N=O)=C(/C)O
inactive: dose: 50.0 mg/kg/injection, schedule: Q01DX009 (ip), vehicle: saline 111 % of control | [17] 105 % of control | [12] 91 % of control | [18] 104 % of control | [13] 93 % of control | dose: 400.0 mg/kg/injection, schedule: Q01DX001 (ip), vehicle: saline with Tween-80 92 % of control | [19] 111 % of control | [14] 87 % of control

Cc1cccc([N+](=O)[O-])n1
inactive: dose: 25.0 mg/kg/injection, schedule: Q01DX009 (ip), vehicle: saline with Tween-80 94 % of control | [15] 94 % of control | [10] 89 % of control

COc1cc(C(=O)N2CCCCCCC2)cc(OC)c1OC
inactive: [12] 98 % of control | [13] 102 % of control

CCNS(=O)(=O)c1ncnc2nc[nH]c12
inactive: dose: 44.0 mg/kg/injection, schedule: Q01DX Z (ip), vehicle: carboxymethylcellulose (CMC) 117 % of control | dose: 44.0 mg/kg/injection, schedule: Q01DX Z (ip), vehicle: methylcellulose (MC) 98 % of control | dose: 66.0 mg/kg/injection, schedule: Q01DX Z (ip), vehicle: carboxymethylcellulose (CMC) 123 % of control | dose: 66.0 mg/kg/injection, schedule: Q01DX Z (ip), vehicle: methylcellulose (MC) 102 % of control | dose: 100.0 mg/kg/injection, schedule: Q01DX Z (ip), vehicle: methylcellulose (MC) 106 % of control | dose: 150.0 mg/kg/injection, schedule: Q01DX Z (ip), vehicle: methylcellulose (MC) 102 % of control

COC(=O)c1ccccc1NC(=O)N(c1ccccc1)c1ccccc1
inactive: [20] 93 % of control | [21] 97 % of control | [22] 101 % of control

COc1cc2c(cc1OC)C1(NCC2)C(=O)Nc2c(C)cc(Cl)cc21 (configuration not stated)
inactive: dose: 25.0 mg/kg/injection, schedule: Q04DX002 (ip), vehicle: saline 103 % of control | dose: 50.0 mg/kg/injection, schedule: Q04DX002 (ip), vehicle: saline 92 % of control | [23] 95 % of control and 100 % of control | [24] 92 % of control | dose: 400.0 mg/kg/injection, schedule: Q04DX002 (ip), vehicle: saline 90 % of control

Nc1nc(N)c2c(n1)Nc1ccc(Cl)nc1S2
inactive: dose: 75.0 mg/kg/injection, schedule: Q01DX009 (ip), vehicle: Klucel (hydroxypropylcellulose) (HPC) 93 % of control | dose: 150.0 mg/kg/injection, schedule: Q01DX009 (ip), vehicle: Klucel (hydroxypropylcellulose) (HPC) 95 % of control

Cc1ccc2c(c1N)C(=O)c1ccccc1C2=O
inactive: [4] 103 % of control | [5] 92 % of control | [6] 96 % of control

CCOC(=O)c1ccc(NS(=O)(=O)c2c(C)cc(C)cc2C)cc1
inactive: [16] 104 % of control and 90 % of control | dose: 100.0 mg/kg/injection, schedule: Q04DX002 (ip), vehicle: saline with Tween-80 97 % of control and 103 % of control | [25] 95 % of control | dose: 200.0 mg/kg/injection, schedule: Q01DX009 (ip), vehicle: saline with Tween-80 95 % of control and 103 % of control | dose: 200.0 mg/kg/injection, schedule: Q04DX002 (ip), vehicle: saline with Tween-80 89 % of control and 91 % of control | [26] 96 % of control | dose: 400.0 mg/kg/injection, schedule: Q01DX009 (ip), vehicle: saline with Tween-80 95 % of control and 105 % of control | dose: 400.0 mg/kg/injection, schedule: Q04DX002 (ip), vehicle: saline with Tween-80 97 % of control and 87 % of control | [27] 91 % of control

CCOC(=O)C(C(=O)OCC)c1cc(Cl)nnc1Cl
inactive: [23] 91 % of control | [24] 91 % of control

Nc1ccc(OCc2nc(N)nc(N)c2-c2ccc(Cl)cc2)cc1
inactive: dose: 100.0 mg/kg/injection, schedule: Q01DX001 (ip), vehicle: Klucel (hydroxypropylcellulose) (HPC) 102 % of control | dose: 200.0 mg/kg/injection, schedule: Q01DX001 (ip), vehicle: Klucel (hydroxypropylcellulose) (HPC) 105 % of control | dose: 400.0 mg/kg/injection, schedule: Q01DX001 (ip), vehicle: Klucel (hydroxypropylcellulose) (HPC) 96 % of control

O=C(Nc1ccc([N+](=O)[O-])cc1)N(c1ccccn1)c1ccccn1
inactive: [4] 89 % of control | [5] 91 % of control | [6] 95 % of control

CC1(C)C(=NN)C(C)(C)C1O (configuration not stated)
inactive: [1] 101 % of control | [2] 104 % of control | [3] 96 % of control

O=S(=O)(CCCl)c1ccc(Br)cc1
inactive: [20] 101 % of control | [21] 97 % of control | [22] 101 % of control

O/N=C\CC/C=N\O
inactive: [12] 105 % of control | [13] 98 % of control | [14] 100 % of control

C[N+]1(CC2CO2)CCOCC1 (configuration not stated)
inactive: [1] 109 % of control | [2] 106 % of control | [3] 96 % of control

O=C(O)C1C2C=CC(CO)(O2)C1C(=O)O (configuration not stated)
inactive: [17] 97 % of control | [25] 97 % of control | [18] 100 % of control | [26] 92 % of control | [19] 96 % of control | [27] 95 % of control
